# Values of other authors in patent US11160278B2, “Use of active substances for controlling virus infection in plants” (Bayer CropScience Aktiengesellschaft, priority 2016, dated 2021).
# Key:
# [1] = system: tobacco mosaic virus (TMV); conditions: also NahG transgenic tobacco
# [2] = system: Pseudomonas syringae pv tabaci
structure (smiles),measurement,setting,value
COC(=O)N(OC)c1ccccc1COc1ccn(-c2ccc(Cl)cc2)n1 [Pyraclostrobin],resistance of tobacco against infection by TMV,[1],enhance the resistance
same,resistance of tobacco against infection by Pseudomonas syringae pv tabaci,[2],enhance the resistance
